# Test results from patent publication US20240270724A1, “GALECTIN-3 INHIBITING C-GLYCOSIDES” (GLYCOMIMETICS, INC., priority 2021, published 2024).
# How the values were obtained:
# [1] = molecular target: T1, carbohydrate recognition domain of human galectin-3 (Galectin-3-CRD) (Homo sapiens, UniProt P17931); experiment: Galectin-3 activity microscale thermophoresis assay; assay type: binding; settings: label-free MST, 20 nM galectin-3-CRD; average of all assays (± standard deviation), each assay in triplicate
# T1 construct: The carbohydrate recognition domain of human galectin-3 (Servesto Galectin-3-CRD) was diluted; purchased Servesto
# T1 sequence (P17931 118-248 limits assumed): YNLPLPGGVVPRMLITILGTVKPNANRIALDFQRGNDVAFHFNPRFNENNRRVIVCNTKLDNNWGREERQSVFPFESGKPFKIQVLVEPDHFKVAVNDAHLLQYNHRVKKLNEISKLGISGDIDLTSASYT
# Description: The carbohydrate recognition domain of human galectin-3 (Servesto Galectin-3-CRD) was diluted with PBS+0.1% F127 to 40 nM. Separately, a 40 uM stock of Compound 45 in DMSO was diluted down to 4 uM in PBS+0.1% F127 and serially diluted in sixteen steps using a dilution factor of 1 to 2 in 10% DMSO+PBS+0.1% F127. To each sample in the serial dilution of Compound 45, 10 ul of 40 nM Galectin-3-CRD was added, yielding final concentrations of 20 nM galectin-3-CRD and 5% DMSO+PBS+0.1% F127. NT.LabelFree Zero background Standard Treated Capillaries were filled with the prepared solutions then loaded into the Monolith NT Label-Free MST instrument. The reaction was measured with 100% excitation power of LED and medium (40%) MST power. Binding curves and Kd values were generated using MO affinity analysis. Each assay was run in triplicate. Some compounds were subjected to more than one assay run in triplicate.
# galectin-3 = molecular target: T2, galectin-3 (Homo sapiens, UniProt P17931); experiment: Galectin-3 activity ELISA assay: inhibition of galectin-3 binding to immobilized Galβ1-3GlcNAc polymer; settings: inhibition of galectin-3 binding to Galβ1-3GlcNAc polymer, average (± standard deviation) where assayed more than once
# T2 construct: purchased IBL IBATGP0414
# T2 sequence (P17931 whole entry): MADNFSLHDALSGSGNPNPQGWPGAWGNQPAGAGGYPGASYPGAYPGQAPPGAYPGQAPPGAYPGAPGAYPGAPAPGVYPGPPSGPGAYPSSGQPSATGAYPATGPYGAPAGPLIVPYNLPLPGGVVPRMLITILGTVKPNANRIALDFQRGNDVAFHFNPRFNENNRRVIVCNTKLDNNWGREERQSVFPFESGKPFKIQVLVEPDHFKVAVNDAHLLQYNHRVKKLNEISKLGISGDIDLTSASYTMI
# From the text: An inhibition assay may be used to screen for antagonists of galectin-3. For example, an assay may be performed to characterize the capability of a compound described herein to inhibit interaction of galectin-3 with a Galβ1-3GlcNAc carbohydrate structure. The inhibition assay may be a competitive binding assay, which allows the determination of IC50 values. By way of example, a Galβ1-3GlcNAc polymer may be immobilized onto a matrix; a composition may be added to reduce nonspecific binding; the immobilized Galβ1-3GlcNAc polymer may be contacted with the candidate compound in the presence of galectin-3 group under conditions and for a time sufficient to permit galectin-3 to bind to the immobilized Galβ1-3GlcNAc polymer; the immobilized Galβ1-3GlcNAc polymer may be washed; and the amount of galectin-3 bound to the immobilized Galβ1-3GlcNAc polymer may be detected. Variations of such steps can be readily and routinely accomplished by a person of ordinary skill in the art.
# Galectin-3 antagonists were evaluated for their ability to inhibit binding of galectin-3 to a Galβ1-3GlcNAc carbohydrate structure. The detailed protocol was as follows. A 1 μg/mL suspension of a Galβ1-3GlcNAcβ1-3Galβ1-4GlcNAcβ-PAA-biotin polymer (Glycotech, catalog number 01-096) was prepared. A 100 μL aliquot of the polymer was added to the wells of a 96-well streptavidin-coated plate (R&D Systems, catalog number CP004). A 100 μL aliquot of 1× Tris Buffered Saline (TBS, Sigma, catalog number T5912-10X) was added to control wells. The polymer was allowed to bind to the streptavidin-coated wells for 1.5 hours at room temperature. The contents of the wells were discarded, and 200 μL of 1×TBS containing 1% bovine serum albumin (BSA) was added to each well as a blocking reagent and the plate was kept at room temperature for 30 minutes. The wells were washed three times with 1×TBS containing 0.1% BSA. A serial dilution of test compounds was prepared in a separate V-bottom plate (Corning, catalog number 3897). A 75 μL aliquot of the highest concentration of the compound to be tested was added to the first well in a column of the V-bottom plate, then 15 μL were serially transferred into 60 μL 1×TBS through the remaining wells in the column to generate a 1 to 5 serial dilution. A 60 μL aliquot of 2 μg/mL galectin-3 (IBL, catalog number IBATGP0414) was added to each well in the V-bottom plate. A 100 μL aliquot of the galectin-3 test compound mixture was transferred from the V-bottom plate into the assay plate containing the Galβ1-3GlcNAc polymer. Four sets of control wells in the assay plate were prepared in duplicate containing 1) both Galβ1-3GlcNAc polymer and galectin-3, 2) neither the polymer nor galectin-3, 3) galectin-3 only, no polymer, or 4) polymer only, no galectin-3. The plate was gently rocked for 1.5 hours at room temperature. The wells were washed four times with TBS/0.1% BSA. A 100 μL aliquot of anti-galectin-3 antibody conjugated to horse radish peroxidase (R&D Systems, from DGAL30 kit) was added to each well, and the plate was kept at room temperature for 1 hour. The wells were washed four times with TBS/0.1% BSA. A 100 μL aliquot of TMB substrate solution was added to each well. The TMB substrate solution was prepared by making a 1:1 mixture of TMB Peroxidase Substrate (KPL, catalog number 5120-0048) and Peroxidase Substrate Solution B (KPL, catalog number 5120-0037). The plate was kept at room temperature for 10 to 20 minutes. The color development was stopped by adding 100 uL 10% phosphoric acid (RICCA Chemical Co., catalog number 5850-16). The absorbance at 450 nm (A450) was measured using a FlexStation 3 plate reader (Molecular Devices). Plots of A450 versus test compound concentration and IC50 determinations were made using GraphPad Prism 6. The number of assays run (n) for each compound is recorded in the following table.
SMILES,Kd [1],IC50 (galectin-3)
"[2H]C([2H])([2H])OC1C(n2cc(-c3cc(F)c(F)c(F)c3)nn2)[C@@H](O)C(CO)O[C@H]1[C@H](OCc1ccc(Cl)c(F)c1)C(=O)NC(C)C (stereo partly drawn) [Compound 90, reference compound]",25 nM,1190 nM
CCNC(=O)[C@@H](OCc1ccc(Br)cc1)[C@@H]1OC(CO)[C@H](O)C(n2cc(-c3cc(F)c(F)c(F)c3)nn2)C1OC (stereo partly drawn) [Compound 69],32 nM,269 nM
COCCCN(C)C(=O)[C@@H](OCc1ccc(Br)cc1)[C@@H]1OC(CO)[C@H](O)C(n2cc(-c3cc(F)cc(F)c3)nn2)C1OC (stereo partly drawn) [Compound 22],83 nM,1490 nM
[2H]C([2H])([2H])OC1C(n2cc(-c3cc(F)c(F)c(F)c3)nn2)[C@@H](O)C(CO)O[C@H]1[C@H](OCc1ccc(Br)cc1)C(=O)NC([2H])(C([2H])([2H])[2H])C([2H])([2H])[2H] (stereo partly drawn) [Compound 46],2.9 nM,228 nM
"CNC(=O)[C@@H](OCc1ccc(Cl)cc1)[C@@H]1OC(CO)[C@H](O)C(n2cc(-c3cc(F)c(F)c(F)c3)nn2)C1OC (stereo partly drawn) [Compound 84, reference compound]",18 nM,386 nM
[2H]C([2H])([2H])OC1C(n2cc(-c3cc(F)c(F)c(F)c3)nn2)[C@@H](O)C(CO)O[C@H]1[C@H](OCc1ccc(Br)cc1)C(=O)NC1COC1 (stereo partly drawn) [Compound 64],18 nM,236 nM
"COC1C(n2cc(-c3cc(F)c(F)c(F)c3)nn2)[C@@H](O)C(CO)O[C@H]1[C@H](OCc1ccc(Cl)cc1)C(=O)NC(C)C (stereo partly drawn) [Compound 89, reference compound]",70 nM,427 nM
COCCCNC(=O)[C@@H](OCc1ccc(Br)cc1)[C@@H]1OC(CO)[C@H](O)C(n2cc(-c3cc(F)cc(F)c3)nn2)C1O (stereo partly drawn) [Compound 35],21 nM,391 nM
[2H]C([2H])([2H])OC1C(n2cc(-c3cc(F)c(F)c(F)c3)nn2)[C@@H](O)C(CO)O[C@H]1[C@H](OCc1ccc(Br)cc1)C(=O)NC(C)(C)CO (stereo partly drawn) [Compound 74],20 nM,216 nM
[2H]C([2H])([2H])OC1C(n2cc(-c3cc(F)c(F)c(F)c3)nn2)[C@@H](O)C(CO)O[C@H]1[C@H](OCc1ccc(Br)cc1)C(=O)NC(C)(C)C (stereo partly drawn) [Compound 48],46 nM,972 nM
[2H]C([2H])([2H])OC1C(n2cc(-c3cc(F)c(F)c(F)c3)nn2)[C@@H](O)C(CO)O[C@H]1[C@H](OCc1ccc(Br)cc1)C(=O)NC1CC(F)(F)C1 (stereo partly drawn) [Compound 66],3.6 nM,143 nM
COC1C(n2cc(-c3cc(F)c(F)c(F)c3)nn2)[C@@H](O)C(CO)O[C@H]1[C@H](OCc1ccc(Br)cc1)C(=O)NC1CC1 (stereo partly drawn) [Compound 49],18 nM,116 nM
CNC(=O)[C@@H](OCc1ccc(Br)cc1)[C@@H]1OC(CO)[C@H](O)C(n2cc(-c3cc(F)c(F)c(F)c3)nn2)C1OC (stereo partly drawn) [Compound 19],23 nM,448 nM
[2H]C([2H])([2H])OC1C(n2cc(-c3cc(F)c(F)c(F)c3)nn2)[C@@H](O)C(CO)O[C@H]1[C@H](OCc1ccc(Br)cc1)C(=O)NC1CCC1 (stereo partly drawn) [Compound 67],2.2 nM,153 nM
[2H]C([2H])([2H])OC1C(n2cc(-c3cc(F)c(F)c(F)c3)nn2)[C@@H](O)C(CO)O[C@H]1[C@H](OCc1ccc(Br)cc1)C(=O)N[C@H]1C[C@H]1F (stereo partly drawn) [Compound 65],13 nM,364 nM

# Further molecules by falling Kd [1], results first:
Kd [1],IC50 (galectin-3),SMILES
87 nM,709 nM,[2H]C([2H])([2H])OC1C(n2cc(-c3cc(F)c(F)c(F)c3)nn2)[C@@H](O)C(CO)O[C@H]1[C@H](OCc1ccc(Br)cc1)C(=O)N(C)C (stereo partly drawn) [Compound 68]
33 nM,474 nM,COCCCNC(=O)[C@@H](OCc1ccc(Br)cc1)[C@@H]1OC(CO)[C@H](O)C(n2cc(-c3cc(F)cc(F)c3)nn2)C1OC (stereo partly drawn) [Compound 21]
31 nM,470 nM,COC1C(n2cc(-c3cc(F)c(F)c(F)c3)nn2)[C@@H](O)C(CO)O[C@H]1[C@H](OCc1ccc(Br)cc1)C(=O)O (stereo partly drawn) [Compound 76]
22 nM,51 nM,[2H]C([2H])([2H])OC1C(n2cc(-c3cc(F)c(F)c(F)c3)nn2)[C@@H](O)C(CO)O[C@H]1[C@H](OCc1ccc(Br)cc1)C(=O)NC1CNC1 (stereo partly drawn) [Compound 63]
21 nM,938 nM,[2H]C([2H])([2H])OC1C(n2cc(-c3cc(F)c(F)c(F)c3)nn2)[C@@H](O)C(CO)O[C@H]1[C@H](OCc1ccc(Br)cc1)C(=O)NC1(CO)CC1 (stereo partly drawn) [Compound 75]
20 nM,192 nM,COC1C(n2cc(-c3cc(F)c(F)c(F)c3)nn2)[C@@H](O)C(CO)O[C@H]1[C@H](OCc1ccc(Br)cc1)C(=O)NCCO (stereo partly drawn) [Compound 70]
12 nM,397 nM,"COCCCNC(=O)[C@@H](OCc1ccc(Cl)cc1)[C@@H]1OC(CO)[C@H](O)C(n2cc(-c3cc(F)c(F)c(F)c3)nn2)C1OC (stereo partly drawn) [Compound 85, reference compound]"
12 nM,103 nM,COC1C(n2cc(-c3cc(F)c(F)c(F)c3)nn2)[C@@H](O)C(CO)O[C@H]1[C@H](OCc1ccc(Br)cc1)C(=O)OC(C)C (stereo partly drawn) [Compound 43]
11 nM,408 nM,[2H]C([2H])([2H])OC1C(n2cc(-c3cc(F)c(F)c(F)c3)nn2)[C@@H](O)C(CO)O[C@H]1[C@H](OCc1ccc(Br)cc1)C(=O)NC1CC1 (stereo partly drawn) [Compound 47]
11 nM,826 nM,[2H]C([2H])([2H])OC1C(n2cc(-c3cc(F)c(F)c(F)c3)nn2)[C@@H](O)C(CO)O[C@H]1[C@H](OCc1ccc(Br)cc1)C(=O)NC1CC1(F)F (stereo partly drawn) [Compound 62]
10 nM,771 nM,[2H]C([2H])([2H])OC1C(n2cc(-c3cc(F)c(F)c(F)c3)nn2)[C@@H](O)C(CO)O[C@H]1[C@H](OCc1ccc(Br)c(F)c1)C(=O)NC(C)C (stereo partly drawn) [Compound 61]
9 nM,526 nM,COC1C(n2cc(-c3cc(F)c(F)c(F)c3)nn2)[C@@H](O)C(CO)O[C@H]1[C@H](OCc1ccc(Br)cc1)C(=O)N[C@@H](C)CF (stereo partly drawn) [Compound 71]
8 nM,182 nM,COC1C(n2cc(-c3cc(F)c(F)c(F)c3)nn2)[C@@H](O)C(CO)O[C@H]1[C@H](OCc1ccc(Br)cc1)C(=O)N[C@@H](C)C(F)(F)F (stereo partly drawn) [Compound 73]
1.7 nM,271 nM,COC1C(n2cc(-c3cc(F)c(F)c(F)c3)nn2)[C@@H](O)C(CO)O[C@H]1[C@H](OCc1ccc(Br)cc1)C(=O)NC(C)C (stereo partly drawn) [Compound 23]
0.4 nM,184 nM,"CC(C)OC(=O)[C@@H](OCc1ccc(Cl)cc1)[C@@H]1OC(CO)[C@H](O)C(n2cc(-c3cc(F)c(F)c(F)c3)nn2)C1O (stereo partly drawn) [Compound 86, reference compound]"
